Our source for the IC50 values is patent US20260334439A1, “BCAT2 INHIBITORS” (Agios Pharmaceuticals, Inc., priority 2023, published 2026).

For test [1], the target named is T1, BCAT2 (Homo sapiens, UniProt O15382).
T1 sequence (O15382 28-392): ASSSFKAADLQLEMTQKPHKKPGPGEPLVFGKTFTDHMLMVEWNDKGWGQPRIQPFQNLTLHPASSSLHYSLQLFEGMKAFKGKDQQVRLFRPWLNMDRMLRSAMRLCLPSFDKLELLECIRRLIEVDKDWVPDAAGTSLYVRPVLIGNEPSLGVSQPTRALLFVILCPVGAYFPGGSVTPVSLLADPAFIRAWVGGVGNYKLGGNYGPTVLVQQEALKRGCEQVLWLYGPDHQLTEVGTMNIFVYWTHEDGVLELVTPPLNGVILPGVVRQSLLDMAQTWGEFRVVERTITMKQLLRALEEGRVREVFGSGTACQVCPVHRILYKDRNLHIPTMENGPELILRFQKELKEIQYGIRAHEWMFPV
As to the kind of experiment: BCAT2 in vitro enzyme inhibition assay (hBCAT2, glutamate dehydrogenase/diaphorase/resazurin coupled fluorescence read). The note with it: hBCAT2, 1 h preincubation at 25° C., one hour reaction; average where tested multiple times. The class given is biochemical. In a few lines:
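Coupled GDH/diaphorase/resazurin fluorescence (Ex 540/Em 590) read after 1 h reaction at 25 °C, SDS-stopped; enzyme (0.33 μg/mL in mix) first preincubated 1 h with compound, 10-point 3-fold series from 100 μM final, Tris pH 8.0 buffer with NaCl, BSA; technical duplicates, averaged across tests.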
On the technique in general: Alamar Blue is a resazurin reagent that responds to reducing activity.

Test [2] concerns the target T1, BCAT2. As to the kind of experiment: BCAT2 cell inhibition using engineered A549 cells (MUT KO, BCAT1 KO; 13C6-KMV formation by LC-MS/MS). More on the design: expressed endogenous BCAT2; endogenous in cells; host or cells: A549 cells, MUT knockout and BCAT1 knockout. The class given is cell-based. In a few lines:
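Medium 13C6-KMV formation is read by LC-MS/MS after PFBHA derivatization with d8-KMV internal standard. Cells are CRISPR MUT/BCAT1 double-knockout A549 expressing endogenous BCAT2, given compound 15 min before labelled isoleucine (800 uM, added 1:1) for 24 h. CTG viability run in parallel; replicates averaged.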

The mark [3] stands for this setting: read-out: BCAT2 Cell Inhibition (IC50), engineered A549 cells, 24 hours, 13C6-KMV in media, average where tested multiple times.

The structures appear in SMILES notation. Bounds are passed on as bounds.

A word on the IC50: it is the concentration needed to halve the response being measured. In the case of `CO[C@H]1C[C@H](NC(=O)c2cc(Cl)ccc2OCCO)C[C@H](n2c(-c3ccccc3F)nc3cnc(-c4nc[nH]n4)cc32)C1` [Example 119, 5-chloro-N-((1R,3S,5S)-3-(2-(2-fluorophenyl)-6-(1H-1,2,4-triazol-3-yl)-1H-imidazo[4,5-c]pyridin-1-yl)-5-methoxycyclohexyl)-2-(2-hydroxyethoxy)benzamide], the 50% inhibitory concentration (IC50) in test [1] and in test [2] was less than 100 nM in each case.

`O=C(N[C@H]1CCC[C@@H](n2c(-c3ccccc3F)nc3cnc(-c4nc[nH]n4)cc32)[C@@H]1O)c1cc(F)ccc1F` [Example 120, 2,5-difluoro-N-((1S,2R,3R)-3-(2-(2-fluorophenyl)-6-(1H-1,2,4-triazol-3-yl)-1H-imidazo[4,5-c]pyridin-1-yl)-2-hydroxycyclohexyl)benzamide]: the half-maximal inhibitory concentration (IC50) in test [1] and in test [2] was less than 100 nM each time.

Turning to `CO[C@H]1C[C@H](NC(=O)c2cc(F)ccc2F)C[C@H](n2c(-c3ccccc3F)nc3cnc(-c4nc[nH]n4)cc32)C1` [Example 122, 2,5-difluoro-N-((1R,3S,5S)-3-(2-(2-fluorophenyl)-6-(1H-1,2,4-triazol-3-yl)-1H-imidazo[4,5-c]pyridin-1-yl)-5-methoxycyclohexyl)benzamide], the concentration for half-maximal inhibition (IC50) in test [1] and in test [2] was less than 100 nM each time.

For `CN1C[C@@H](NC(=O)c2cc(Cl)ccn2)C[C@@H](n2c(-c3ccccc3F)nc3cnc(-c4nc[nH]n4)cc32)C1` [Example 129, 4-chloro-N-((3S,5R)-5-(2-(2-fluorophenyl)-6-(1H-1,2,4-triazol-3-yl)-1H-imidazo[4,5-c]pyridin-1-yl)-1-methylpiperidin-3-yl)picolinamide], the IC50 was 100 to 500 nM in test [1] and greater than 1000 nM in test [2] (setting [3]).

For the molecule `CN1C[C@H](NC(=O)c2cc(Cl)ccn2)C[C@H](n2c(-c3ccccc3F)nc3cnc(-c4nc[nH]n4)cc32)C1` [Example 130, 4-chloro-N-((3R,5S)-5-(2-(2-fluorophenyl)-6-(1H-1,2,4-triazol-3-yl)-1H-imidazo[4,5-c]pyridin-1-yl)-1-methylpiperidin-3-yl)picolinamide], the IC50 in test [1] and in test [2] was less than 100 nM in each case.

On to `CN1C[C@H](NC(=O)c2cc(Cl)ccn2)C[C@H](n2c(-c3ncccc3F)nc3cnc(-c4nc[nH]n4)cc32)C1` [Example 132, 4-chloro-N-((3R,5S)-5-(2-(3-fluoropyridin-2-yl)-6-(1H-1,2,4-triazol-3-yl)-1H-imidazo[4,5-c]pyridin-1-yl)-1-methylpiperidin-3-yl)picolinamide], for which the figures for the 50% inhibitory concentration (IC50) in test [1] and in test [2] (setting [3]) were less than 100 nM and greater than 1000 nM, respectively.

As to `CN1C[C@@H](NC(=O)c2cc(F)ccn2)C[C@@H](n2c(-c3ccccc3F)nc3cnc(-c4nc[nH]n4)cc32)C1` [Example 133, 4-fluoro-N-((3S,5R)-5-(2-(2-fluorophenyl)-6-(1H-1,2,4-triazol-3-yl)-1H-imidazo[4,5-c]pyridin-1-yl)-1-methylpiperidin-3-yl)picolinamide], the IC50 is 100 to 500 nM in test [1] and greater than 1000 nM in test [2] (setting [3]).

For `CN1C[C@H](NC(=O)c2cc(F)ccn2)C[C@H](n2c(-c3ccccc3F)nc3cnc(-c4nc[nH]n4)cc32)C1` [Example 134, 4-fluoro-N-((3R,5S)-5-(2-(2-fluorophenyl)-6-(1H-1,2,4-triazol-3-yl)-1H-imidazo[4,5-c]pyridin-1-yl)-1-methylpiperidin-3-yl)picolinamide], the IC50 is less than 100 nM in test [1] and 100 to 500 nM in test [2].

In the case of `COc1ccc(Cl)cc1C(=O)N[C@@H]1C[C@H](n2c(-c3ccccc3F)nc3cnc(-c4nc[nH]n4)cc32)CN(C)C1` [Example 136, 5-chloro-N-((3R,5S)-5-(2-(2-fluorophenyl)-6-(1H-1,2,4-triazol-3-yl)-1H-imidazo[4,5-c]pyridin-1-yl)-1-methylpiperidin-3-yl)-2-methoxybenzamide], the figures for the 50% inhibitory concentration (IC50) in test [1] and in test [2] were less than 100 nM and 100 to 500 nM, respectively.

For the molecule `COc1ccc(Cl)cc1C(=O)N[C@@H]1C[C@H](n2c(-c3ncccc3F)nc3cnc(-c4nc[nH]n4)cc32)CN(C)C1` [Example 137, 5-chloro-N-((3R,5S)-5-(2-(3-fluoropyridin-2-yl)-6-(1H-1,2,4-triazol-3-yl)-1H-imidazo[4,5-c]pyridin-1-yl)-1-methylpiperidin-3-yl)-2-methoxybenzamide], the results for the IC50 in test [1] and in test [2] (setting [3]) were 100 to 500 nM and greater than 1000 nM, respectively.

For `CN1C[C@H](NC(=O)c2cc(Cl)ccc2F)C[C@H](n2c(-c3ccccc3F)nc3cnc(-c4nc[nH]n4)cc32)C1` [Example 145, 5-chloro-2-fluoro-N-((3R,5S)-5-(2-(2-fluorophenyl)-6-(1H-1,2,4-triazol-3-yl)-1H-imidazo[4,5-c]pyridin-1-yl)-1-methylpiperidin-3-yl)benzamide], the IC50 in test [1] is less than 100 nM; in test [2], 100 to 500 nM.

Turning to `CN1C[C@H](NC(=O)c2cc(Cl)ccc2OCCO)C[C@H](n2c(-c3ccccc3F)nc3cnc(-c4nc[nH]n4)cc32)C1` [Example 150, 5-chloro-N-((3R,5S)-5-(2-(2-fluorophenyl)-6-(1H-1,2,4-triazol-3-yl)-1H-imidazo[4,5-c]pyridin-1-yl)-1-methylpiperidin-3-yl)-2-(2-hydroxyethoxy)benzamide], the results for the IC50 in test [1] and in test [2] were less than 100 nM and 100 to 500 nM, respectively.

Take `CN1C[C@H](NC(=O)c2cc(F)ccc2F)C[C@H](n2c(-c3ccccc3F)nc3cnc(-c4nc[nH]n4)cc32)C1` [Example 153, 2,5-difluoro-N-((3R,5S)-5-(2-(2-fluorophenyl)-6-(1H-1,2,4-triazol-3-yl)-1H-imidazo[4,5-c]pyridin-1-yl)-1-methylpiperidin-3-yl)benzamide]: the half-maximal inhibitory concentration (IC50) in test [1] is less than 100 nM; in test [2], 100 to 500 nM.

With `CC(=O)N1C[C@H](NC(=O)c2cc(F)ccn2)C[C@H](n2c(-c3ccccc3F)nc3cnc(-c4nc(C)co4)cc32)C1` [Example 167, N-((3R,5S)-1-acetyl-5-(2-(2-fluorophenyl)-6-(4-methyloxazol-2-yl)-1H-imidazo[4,5-c]pyridin-1-yl)piperidin-3-yl)-4-fluoropicolinamide], the IC50 in test [1] and in test [2] was less than 100 nM each time.

As for `O=C1c2cc(Cl)ccc2CN1[C@H]1CCC[C@@H](n2c(-c3ccccc3F)nc3cnc(-c4nc[nH]n4)cc32)C1` [Example 168, 6-chloro-2-((1S,3R)-3-(2-(2-fluorophenyl)-6-(1H-1,2,4-triazol-3-yl)-1H-imidazo[4,5-c]pyridin-1-yl)cyclohexyl)isoindolin-1-one], the IC50 in test [1] and in test [2] was less than 100 nM throughout.

Take `O=C1c2cc(F)ccc2CN1[C@H]1CCC[C@@H](n2c(-c3ccccc3F)nc3cnc(-c4nc[nH]n4)cc32)C1` [Example 169, 6-fluoro-2-((1S,3R)-3-(2-(2-fluorophenyl)-6-(1H-1,2,4-triazol-3-yl)-1H-imidazo[4,5-c]pyridin-1-yl)cyclohexyl)isoindolin-1-one]: the concentration for half-maximal inhibition (IC50) in test [1] and in test [2] was less than 100 nM in each case.

For `O=C1c2cc(F)ccc2CN1[C@H]1CCC[C@@H](n2c(-c3ncccc3F)nc3cnc(-c4nc[nH]n4)cc32)C1` [Example 170, 6-fluoro-2-((1S,3R)-3-(2-(3-fluoropyridin-2-yl)-6-(1H-1,2,4-triazol-3-yl)-1H-imidazo[4,5-c]pyridin-1-yl)cyclohexyl)isoindolin-1-one], the IC50 in test [1] and in test [2] was less than 100 nM throughout.

With `N#Cc1ccccc1-c1nc2cnc(-c3nc[nH]n3)cc2n1[C@@H]1CCC[C@H](N2Cc3ccc(F)cc3C2=O)C1` [Example 171, 2-(1-((1R,3S)-3-(6-fluoro-1-oxoisoindolin-2-yl)cyclohexyl)-6-(1H-1,2,4-triazol-3-yl)-1H-imidazo[4,5-c]pyridin-2-yl)benzonitrile], the IC50 in test [1] and in test [2] was less than 100 nM throughout.

`O=C1c2cc(Cl)ccc2CN1[C@H]1CCC[C@@H](n2c(-c3ccccc3OCCO)nc3cnc(-c4nc[nH]n4)cc32)C1` [Example 172, 6-chloro-2-((1S,3R)-3-(2-(2-(2-hydroxyethoxy)phenyl)-6-(1H-1,2,4-triazol-3-yl)-1H-imidazo[4,5-c]pyridin-1-yl)cyclohexyl)isoindolin-1-one]: the IC50 in test [1] and in test [2] was less than 100 nM each time.

Turning to `O=C1c2cc(F)ccc2CN1[C@H]1CCC[C@@H](n2c(-c3ccccc3OCCO)nc3cnc(-c4nc[nH]n4)cc32)C1` [Example 173, 6-fluoro-2-((1S,3R)-3-(2-(2-(2-hydroxyethoxy)phenyl)-6-(1H-1,2,4-triazol-3-yl)-1H-imidazo[4,5-c]pyridin-1-yl)cyclohexyl)isoindolin-1-one], the half-maximal inhibitory concentration (IC50) in test [1] and in test [2] was less than 100 nM each time.

With `O=C1c2ccccc2CN1[C@H]1CCC[C@@H](n2c(-c3ccccc3F)nc3cnc(-c4nc[nH]n4)cc32)C1` [Example 174, 2-((1S,3R)-3-(2-(2-fluorophenyl)-6-(1H-1,2,4-triazol-3-yl)-1H-imidazo[4,5-c]pyridin-1-yl)cyclohexyl)isoindolin-1-one], the IC50 in test [1] and in test [2] was less than 100 nM throughout.
